Patent US12077503B2, “Substituted cyclic amides and their use as herbicides” (FMC CORPORATION, priority 2015, dated 2024)

Tests used:
Assay type in all cases: in vivo
[1] = system: giant foxtail (Setaria faberi); test: Test G Post-Emergence Protocol; conditions: Setaria faberi, post-emergence, 312 h; for pest or weed control at 15.625 g/ha: 15.625 g ai/ha, evaluated after 13 days (100=total damage to plant; 0=no damage to plant), read-out: Foxtail, Giant damage rating; for pest or weed control at 62.5 g/ha: 62.5 g ai/ha, read-out: Foxtail, Giant damage rating (100=total damage to plant; 0=no damage to plant); for pest or weed control at 62.5 g/ha / pest or weed control at 250 g/ha: evaluated after 13 days; for pest or weed control at 250 g/ha: 250 g ai/ha, read-out: damage to plant, Foxtail, Giant (100=total damage to plant; 0=no damage to plant)
How it was run: (§1)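 Sow in soil; grow 8 d (24/16 °C, 14 h light, 65% humidity); spray 15.625/62.5/250 g/ha in acetone:water 50:50 + 0.5% Tween 20; grow on, water twice daily; score damage 0–100 at 13 d.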

corn (Zea mays) [2] = test: Test G Post-Emergence Protocol; conditions: Zea mays, post-emergence, 312 h; for plant injury at 15.625 g/ha: 15.625 g ai/ha, evaluated after 13 days (100=total damage to plant; 0=no damage to plant), read-out: Corn damage rating; for plant injury at 62.5 g/ha: 62.5 g ai/ha, read-out: Corn damage rating (100=total damage to plant; 0=no damage to plant); for plant injury at 62.5 g/ha / plant injury at 250 g/ha: evaluated after 13 days; for plant injury at 250 g/ha: 250 g ai/ha, read-out: damage to plant, Corn (100=total damage to plant; 0=no damage to plant)
How it was run: as §1

[3] = system: velvetleaf (Abutilon theophrasti); test: Test G Post-Emergence Protocol; conditions: Abutilon theophrasti, post-emergence, 312 h; for pest or weed control at 15.625 g/ha: 15.625 g ai/ha, evaluated after 13 days (100=total damage to plant; 0=no damage to plant), read-out: Velvetleaf damage rating; for pest or weed control at 62.5 g/ha: 62.5 g ai/ha, read-out: Velvetleaf damage rating (100=total damage to plant; 0=no damage to plant); for pest or weed control at 62.5 g/ha / pest or weed control at 250 g/ha: evaluated after 13 days; for pest or weed control at 250 g/ha: 250 g ai/ha, read-out: damage to plant, Velvetleaf (100=total damage to plant; 0=no damage to plant)
How it was run: as §1

[4] = system: redroot pigweed (Amaranthus retroflexus); test: Test G Post-Emergence Protocol; conditions: Amaranthus retroflexus, post-emergence, 312 h; for pest or weed control at 15.625 g/ha: 15.625 g ai/ha, evaluated after 13 days (100=total damage to plant; 0=no damage to plant), read-out: Pigweed, Redroot damage rating; for pest or weed control at 62.5 g/ha: 62.5 g ai/ha, read-out: Pigweed, Redroot damage rating (100=total damage to plant; 0=no damage to plant); for pest or weed control at 62.5 g/ha / pest or weed control at 250 g/ha: evaluated after 13 days; for pest or weed control at 250 g/ha: 250 g ai/ha, read-out: damage to plant, Pigweed, Redroot (100=total damage to plant; 0=no damage to plant)
How it was run: as §1

[5] = system: ivy-leaved morning glory (Ipomoea hederacea); test: Test G Post-Emergence Protocol; conditions: Ipomoea, post-emergence, 312 h; for pest or weed control at 15.625 g/ha: 15.625 g ai/ha, evaluated after 13 days (100=total damage to plant; 0=no damage to plant), read-out: Morningglory, Ivy-leaved damage rating; for pest or weed control at 62.5 g/ha: 62.5 g ai/ha, read-out: Morningglory, Ivy-leaved damage rating (100=total damage to plant; 0=no damage to plant); for pest or weed control at 62.5 g/ha / pest or weed control at 250 g/ha: evaluated after 13 days; for pest or weed control at 250 g/ha: 250 g ai/ha, read-out: damage to plant, Morningglory, Ivy-leaved (100=total damage to plant; 0=no damage to plant)
How it was run: as §1

[6] = system: barnyardgrass (Echinochloa crus-galli); test: Test G Post-Emergence Protocol; conditions: Echinochloa crus-galli, post-emergence, 312 h; for pest or weed control at 15.625 g/ha: 15.625 g ai/ha, evaluated after 13 days (100=total damage to plant; 0=no damage to plant), read-out: Barnyardgrass damage rating; for pest or weed control at 62.5 g/ha: 62.5 g ai/ha, read-out: Barnyardgrass damage rating (100=total damage to plant; 0=no damage to plant); for pest or weed control at 62.5 g/ha / pest or weed control at 250 g/ha: evaluated after 13 days; for pest or weed control at 250 g/ha: 250 g ai/ha, read-out: damage to plant, Barnyardgrass (100=total damage to plant; 0=no damage to plant)
How it was run: as §1

[7] = system: giant foxtail (Setaria faberi); test: Test G Pre-Emergence Protocol; conditions: Setaria faberi, pre-emergence, 312 h, evaluated after 13 days; for pest or weed control at 15.625 g/ha: 15.625 g ai/ha; for pest or weed control at 15.625 g/ha / pest or weed control at 250 g/ha: read-out: Foxtail, Giant damage rating (100=total damage to plant; 0=no damage to plant); for pest or weed control at 62.5 g/ha: 62.5 g ai/ha, 100=total damage to plant, 0=no damage to plant, read-out: plant damage rating, Foxtail, Giant; for pest or weed control at 250 g/ha: 250 g ai/ha
How it was run: (§2)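 Glasshouse pre-emergence test: soil-sown seeds, sprayed after 1 d at 15.625, 62.5 or 250 g/ha. Conditions 24/16° C day/night, 14 h light, 65% humidity, watering twice daily. Rating 13 d post-spray (100 = total damage).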

corn (Zea mays) [8] = test: Test G Pre-Emergence Protocol; conditions: Zea mays, pre-emergence, 312 h, evaluated after 13 days; for plant injury at 15.625 g/ha: 15.625 g ai/ha; for plant injury at 15.625 g/ha / plant injury at 250 g/ha: read-out: Corn damage rating (100=total damage to plant; 0=no damage to plant); for plant injury at 62.5 g/ha: 62.5 g ai/ha, 100=total damage to plant, 0=no damage to plant, read-out: plant damage rating, Corn; for plant injury at 250 g/ha: 250 g ai/ha
How it was run: as §2

[9] = system: velvetleaf (Abutilon theophrasti); test: Test G Pre-Emergence Protocol; conditions: Abutilon theophrasti, pre-emergence, 312 h, evaluated after 13 days; for pest or weed control at 15.625 g/ha: 15.625 g ai/ha; for pest or weed control at 15.625 g/ha / pest or weed control at 250 g/ha: read-out: Velvetleaf damage rating (100=total damage to plant; 0=no damage to plant); for pest or weed control at 62.5 g/ha: 62.5 g ai/ha, 100=total damage to plant, 0=no damage to plant, read-out: plant damage rating, Velvetleaf; for pest or weed control at 250 g/ha: 250 g ai/ha
How it was run: as §2

[10] = system: redroot pigweed (Amaranthus retroflexus); test: Test G Pre-Emergence Protocol; conditions: Amaranthus retroflexus, pre-emergence, 312 h, evaluated after 13 days; for pest or weed control at 15.625 g/ha: 15.625 g ai/ha; for pest or weed control at 15.625 g/ha / pest or weed control at 250 g/ha: read-out: Pigweed, Redroot damage rating (100=total damage to plant; 0=no damage to plant); for pest or weed control at 62.5 g/ha: 62.5 g ai/ha, 100=total damage to plant, 0=no damage to plant, read-out: plant damage rating, Pigweed, Redroot; for pest or weed control at 250 g/ha: 250 g ai/ha
How it was run: as §2

[11] = system: ivy-leaved morning glory (Ipomoea hederacea); test: Test G Pre-Emergence Protocol; conditions: Ipomoea, pre-emergence, 312 h, evaluated after 13 days; for pest or weed control at 15.625 g/ha: 15.625 g ai/ha, read-out: Morning-glory, Ivy-leaved damage rating (100=total damage to plant; 0=no damage to plant); for pest or weed control at 62.5 g/ha: 62.5 g ai/ha, 100=total damage to plant, 0=no damage to plant, read-out: plant damage rating, Morningglory, Ivy-leaved; for pest or weed control at 250 g/ha: 250 g ai/ha, read-out: Morningglory, Ivy-leaved damage rating (100=total damage to plant; 0=no damage to plant)
How it was run: as §2

[12] = system: barnyardgrass (Echinochloa crus-galli); test: Test G Pre-Emergence Protocol; conditions: Echinochloa crus-galli, pre-emergence, 312 h, evaluated after 13 days; for pest or weed control at 15.625 g/ha: 15.625 g ai/ha, read-out: Barnyard grass damage rating (100=total damage to plant; 0=no damage to plant); for pest or weed control at 62.5 g/ha: 62.5 g ai/ha, 100=total damage to plant, 0=no damage to plant, read-out: plant damage rating, Barnyardgrass; for pest or weed control at 250 g/ha: 250 g ai/ha, read-out: Barnyardgrass damage rating (100=total damage to plant; 0=no damage to plant)
How it was run: as §2

SMILES | pest or weed control at 15.625 g/ha [1] | pest or weed control at 62.5 g/ha [1] | pest or weed control at 250 g/ha [1] | plant injury at 15.625 g/ha (corn (Zea mays) [2]) | plant injury at 62.5 g/ha (corn (Zea mays) [2]) | plant injury at 250 g/ha (corn (Zea mays) [2]) | pest or weed control at 15.625 g/ha [3] | pest or weed control at 62.5 g/ha [3] | pest or weed control at 250 g/ha [3] | pest or weed control at 15.625 g/ha [4] | pest or weed control at 62.5 g/ha [4] | pest or weed control at 250 g/ha [4] | pest or weed control at 15.625 g/ha [5] | pest or weed control at 62.5 g/ha [5] | pest or weed control at 250 g/ha [5] | pest or weed control at 15.625 g/ha [6] | pest or weed control at 62.5 g/ha [6] | pest or weed control at 250 g/ha [6] | pest or weed control at 15.625 g/ha [7] | pest or weed control at 62.5 g/ha [7] | further results
CN1C[C@H](c2ccc(C(C)(C)C)cc2)[C@@H](C(=O)Nc2ccccc2F)C1=O (racemic) [Compound 1409] | 0% | 0% | 40% | 0% | 0% | 10% | 0% | 0% | 10% | 0% | 0% | 10% | 0% | 0% | 0% | 0% | 10% | 30% | 0% | 0% | pest or weed control at 250 g/ha [7]: 40%; plant injury at 15.625 g/ha (corn (Zea mays) [8]): 0%; plant injury at 62.5 g/ha (corn (Zea mays) [8]): 0%; plant injury at 250 g/ha (corn (Zea mays) [8]): 0%; pest or weed control at 15.625 g/ha [9]: 0%; pest or weed control at 62.5 g/ha [9]: 0%; pest or weed control at 250 g/ha [9]: 0%; pest or weed control at 15.625 g/ha [10]: 0%; pest or weed control at 62.5 g/ha [10]: 0%; pest or weed control at 250 g/ha [10]: 0%; pest or weed control at 15.625 g/ha [11]: 0%; pest or weed control at 62.5 g/ha [11]: 0%; pest or weed control at 250 g/ha [11]: 0%; pest or weed control at 15.625 g/ha [12]: 0%; pest or weed control at 62.5 g/ha [12]: 0%; pest or weed control at 250 g/ha [12]: 10%
Cc1n[nH]cc1NC(=O)[C@@H]1C(=O)N(C)C[C@H]1c1ccc(C(F)(F)F)cc1 (racemic) [Compound 1634] | 0% | 0% | 20% | 0% | 0% | 0% | 0% | 0% | 0% | 0% | 0% | 0% | 0% | 0% | 0% | 0% | 0% | 0% | 0% | 0% | pest or weed control at 250 g/ha [7]: 0%; plant injury at 15.625 g/ha (corn (Zea mays) [8]): 0%; plant injury at 62.5 g/ha (corn (Zea mays) [8]): 0%; plant injury at 250 g/ha (corn (Zea mays) [8]): 0%; pest or weed control at 15.625 g/ha [9]: 0%; pest or weed control at 62.5 g/ha [9]: 0%; pest or weed control at 250 g/ha [9]: 0%; pest or weed control at 15.625 g/ha [10]: 0%; pest or weed control at 62.5 g/ha [10]: 0%; pest or weed control at 250 g/ha [10]: 0%; pest or weed control at 15.625 g/ha [11]: 0%; pest or weed control at 62.5 g/ha [11]: 0%; pest or weed control at 250 g/ha [11]: 0%; pest or weed control at 15.625 g/ha [12]: 0%; pest or weed control at 62.5 g/ha [12]: 0%; pest or weed control at 250 g/ha [12]: 0%
